The first assay concerns the target T1, EGFR InsSVD (D770_N771insSVD) transformed Ba/F3 cells (Homo sapiens, UniProt P00533, INS770SVD).
T1 construct: expressed in transfected cells; host or cells: Ba/F3
The assay can be described thus: Proliferation inhibition assay, EGFR InsSVD transformed Ba/F3 cells. The assay is classed as cell-based. The settings on record: MTS assay, 72 hours. The method, then:
(§1) Cell growth inhibition can be assessed by MTS assay or by Cell Titer Glo Luminescent Cell viability assay (Promega®). Cells are seeded and grow in culture plates before they are exposed to representative compounds of the application for various duration. The viability of the cells are then assessed. […] The growth curves can be fitted using a nonlinear regression model with sigmoidal dose response.
(§2) Cell growth inhibition was assessed by MTS assay for Ba/F3, DFCI58-229, and DFCI127c cells, or by Cell Titer Glo Luminescent Cell viability assay (Promega®) for DFC1362JC cells, 3000 Ba/F3 cells were seeded for per well in 96-well plates, and were exposed to representative compounds of the application (3.3 nM to 10 μM) for 72 hours. For DFCI58-229, DFCI127c, and DFC1362JC cells, 5000 cells were seeded per well. All experimental points included 6 to 12 wells. […] The growth curves were fitted using a nonlinear regression model with sigmoidal dose response.
(§3) Activities of representative compounds of the present application in inhibiting EGFR and HER2 were tested by MTS assay (for Ba/F3 cell, DFCI58-229 cell, and DFCI127c cells) or by CellTiter-Glot luminescent cell viability assay (for DFCI362JC cells). For assays with Ba/F3 cells, 3000 cells were seeded for per well in 96-well plates and were exposed to indicated compounds with a concentration of 3.3 to 10 μM for 72 hours. For assays with DFCI58-229 cell, DFCI127c cell, or DFCI362JC cell, 5000 cells were seeded per well in 96-well plates and were exposed to indicated compounds with a concentration of 3.3 to 10 μM for 72 hours.
In general terms: Tetrazolium assays rely on reduction of a dye to a coloured formazan, in cell work by metabolically active cells.
T3 sequence (P00533 with tags, fused parts or gaps DUP773-773): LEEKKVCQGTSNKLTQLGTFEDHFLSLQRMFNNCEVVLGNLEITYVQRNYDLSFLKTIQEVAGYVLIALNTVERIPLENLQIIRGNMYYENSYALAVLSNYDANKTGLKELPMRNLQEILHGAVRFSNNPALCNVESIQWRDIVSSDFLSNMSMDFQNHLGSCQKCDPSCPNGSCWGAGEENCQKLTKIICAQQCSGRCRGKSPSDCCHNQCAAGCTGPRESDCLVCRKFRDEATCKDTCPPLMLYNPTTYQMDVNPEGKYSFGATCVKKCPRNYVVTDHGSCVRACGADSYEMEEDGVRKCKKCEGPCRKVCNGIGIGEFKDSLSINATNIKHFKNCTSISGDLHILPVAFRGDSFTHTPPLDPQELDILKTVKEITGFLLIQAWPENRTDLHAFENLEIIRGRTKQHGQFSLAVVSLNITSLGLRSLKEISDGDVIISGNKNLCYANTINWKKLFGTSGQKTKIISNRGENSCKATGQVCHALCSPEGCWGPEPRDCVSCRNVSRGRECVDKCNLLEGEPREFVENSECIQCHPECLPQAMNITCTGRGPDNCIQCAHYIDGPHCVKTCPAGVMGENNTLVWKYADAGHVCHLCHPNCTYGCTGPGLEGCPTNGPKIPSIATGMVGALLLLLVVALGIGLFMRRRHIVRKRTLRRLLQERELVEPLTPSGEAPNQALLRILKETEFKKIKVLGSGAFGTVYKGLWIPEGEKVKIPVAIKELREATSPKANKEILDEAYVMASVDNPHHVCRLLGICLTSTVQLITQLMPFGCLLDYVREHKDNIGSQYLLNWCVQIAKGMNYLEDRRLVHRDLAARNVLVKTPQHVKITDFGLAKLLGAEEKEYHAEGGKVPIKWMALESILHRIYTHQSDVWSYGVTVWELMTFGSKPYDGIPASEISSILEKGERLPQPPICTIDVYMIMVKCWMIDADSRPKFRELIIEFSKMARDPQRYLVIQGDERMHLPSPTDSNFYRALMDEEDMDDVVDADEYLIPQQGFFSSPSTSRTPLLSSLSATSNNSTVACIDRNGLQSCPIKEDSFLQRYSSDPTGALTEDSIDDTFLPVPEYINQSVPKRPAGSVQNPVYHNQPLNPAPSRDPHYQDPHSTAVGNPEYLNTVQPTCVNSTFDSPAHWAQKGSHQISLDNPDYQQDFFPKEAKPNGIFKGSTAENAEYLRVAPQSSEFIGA
T4 sequence (P00533 25-1210): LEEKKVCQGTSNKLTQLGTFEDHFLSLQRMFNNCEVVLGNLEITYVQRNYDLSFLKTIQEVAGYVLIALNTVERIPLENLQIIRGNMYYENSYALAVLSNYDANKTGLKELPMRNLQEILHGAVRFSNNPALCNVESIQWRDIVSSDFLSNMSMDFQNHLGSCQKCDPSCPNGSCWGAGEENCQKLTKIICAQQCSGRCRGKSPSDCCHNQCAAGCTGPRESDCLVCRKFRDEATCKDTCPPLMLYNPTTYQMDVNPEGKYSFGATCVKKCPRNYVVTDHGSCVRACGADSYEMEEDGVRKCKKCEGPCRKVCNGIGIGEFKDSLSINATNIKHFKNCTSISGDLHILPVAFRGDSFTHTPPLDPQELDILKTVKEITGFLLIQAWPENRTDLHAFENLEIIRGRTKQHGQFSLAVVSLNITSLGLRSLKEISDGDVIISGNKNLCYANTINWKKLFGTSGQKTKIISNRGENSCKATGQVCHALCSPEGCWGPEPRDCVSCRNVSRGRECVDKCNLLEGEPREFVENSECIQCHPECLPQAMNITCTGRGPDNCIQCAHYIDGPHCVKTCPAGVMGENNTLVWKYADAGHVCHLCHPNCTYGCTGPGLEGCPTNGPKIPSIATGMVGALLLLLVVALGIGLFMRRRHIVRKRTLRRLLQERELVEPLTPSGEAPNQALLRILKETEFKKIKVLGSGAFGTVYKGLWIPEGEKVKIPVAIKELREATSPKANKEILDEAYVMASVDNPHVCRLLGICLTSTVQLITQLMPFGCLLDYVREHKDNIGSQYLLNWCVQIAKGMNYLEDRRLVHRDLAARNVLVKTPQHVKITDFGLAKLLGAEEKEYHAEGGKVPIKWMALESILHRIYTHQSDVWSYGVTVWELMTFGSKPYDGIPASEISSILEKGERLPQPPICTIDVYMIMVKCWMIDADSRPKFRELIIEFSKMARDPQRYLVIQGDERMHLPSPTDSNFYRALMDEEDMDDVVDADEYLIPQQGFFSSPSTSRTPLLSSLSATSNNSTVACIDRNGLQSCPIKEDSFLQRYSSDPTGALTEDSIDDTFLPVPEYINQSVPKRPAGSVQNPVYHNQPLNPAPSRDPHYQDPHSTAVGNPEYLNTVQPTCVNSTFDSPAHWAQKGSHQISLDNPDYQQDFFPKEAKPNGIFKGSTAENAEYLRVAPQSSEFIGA
A word on the EC50: it is the midpoint of the concentration-response curve. For `C=CC(=O)Nc1cc(Nc2ncc3cc(Oc4cc(F)c(F)cc4F)c(=O)n(C)c3n2)c(OC)cc1N(C)CCN(C)C` [Compound 135], the EC50 is < 200 nM.
Same read-out and setting: in the case of `C=CC(=O)Nc1cc(Nc2ncc3cc(Oc4c(F)cc(F)cc4F)c(=O)n(C)c3n2)c(OC)cc1N(C)CCN(C)C` [Compound 136] it was < 200 nM.
On the same count and under the same terms, in the case of `C=CC(=O)Nc1cc(Nc2ncc3cc(Oc4ccc(F)cc4F)c(N)nc3n2)c(OC)cc1N(C)CCN(C)C` [Compound 140] it was 200 to 600 nM; in that of `C=CC(=O)Nc1cc(Nc2ncc3cc(Nc4ccc(F)cc4F)c(=O)n(C)c3n2)c(OC)cc1N(C)CCN(C)C` [Compound 141], < 200 nM; in that of `C=CC(=O)Nc1cc(Nc2ncc3cc(Nc4ccc(F)cc4F)c(=O)n(C)c3n2)c(OC)cc1OCCN(C)C` [Compound 142], < 200 nM.

For the next assay, the target named is T2, EGFR InsGY (D770delinsGY) transformed Ba/F3 cells (Homo sapiens, UniProt P00533, D770Y/INS769G).
T2 construct: expressed in transfected cells; host or cells: Ba/F3
The assay can be described thus: Proliferation inhibition assay, EGFR InsGY transformed Ba/F3 cells. It is filed as cell-based. The settings on record: MTS assay, 72 hours. The method, then:
as §1, §2, §3
Take `C=CC(=O)Nc1cc(Nc2ncc3cc(Oc4cc(F)c(F)cc4F)c(=O)n(C)c3n2)c(OC)cc1N(C)CCN(C)C` [Compound 135]: the EC50 is < 200 nM.
Still for that read-out and setting: in the case of `C=CC(=O)Nc1cc(Nc2ncc3cc(Oc4c(F)cc(F)cc4F)c(=O)n(C)c3n2)c(OC)cc1N(C)CCN(C)C` [Compound 136] it was < 200 nM; in that of `C=CC(=O)Nc1cc(Nc2ncc3cc(Oc4ccc(F)cc4F)c(N)nc3n2)c(OC)cc1N(C)CCN(C)C` [Compound 140], 200 to 600 nM; in that of `C=CC(=O)Nc1cc(Nc2ncc3cc(Nc4ccc(F)cc4F)c(=O)n(C)c3n2)c(OC)cc1N(C)CCN(C)C` [Compound 141], < 200 nM.
Still for that read-out and setting: under `C=CC(=O)Nc1cc(Nc2ncc3cc(Nc4ccc(F)cc4F)c(=O)n(C)c3n2)c(OC)cc1OCCN(C)C` [Compound 142] stands < 200 nM.

A further assay has as its target T3, EGFR InsH transformed Ba/F3 cells (Homo sapiens, UniProt P00533, DUP773-773).
T3 construct: expressed in transfected cells; host or cells: Ba/F3
In words: Proliferation inhibition assay, EGFR InsH transformed Ba/F3 cells. It is filed as cell-based. The settings on record: MTS assay, 72 hours. The method, then:
as §1, §2, §3
In turn, `C=CC(=O)Nc1cc(Nc2ncc3cc(Oc4cc(F)c(F)cc4F)c(=O)n(C)c3n2)c(OC)cc1N(C)CCN(C)C` [Compound 135] had an EC50 of 200 to 600 nM.
Same read-out and setting: in the case of `C=CC(=O)Nc1cc(Nc2ncc3cc(Oc4c(F)cc(F)cc4F)c(=O)n(C)c3n2)c(OC)cc1N(C)CCN(C)C` [Compound 136] it was 200 to 600 nM.
The same measure, in the same setting: in the case of `C=CC(=O)Nc1cc(Nc2ncc3cc(Oc4ccc(F)cc4F)c(N)nc3n2)c(OC)cc1N(C)CCN(C)C` [Compound 140] it was 600 to 1000 nM; in that of `C=CC(=O)Nc1cc(Nc2ncc3cc(Nc4ccc(F)cc4F)c(=O)n(C)c3n2)c(OC)cc1N(C)CCN(C)C` [Compound 141], 200 to 600 nM.
The same measure, in the same setting: in the case of `C=CC(=O)Nc1cc(Nc2ncc3cc(Nc4ccc(F)cc4F)c(=O)n(C)c3n2)c(OC)cc1OCCN(C)C` [Compound 142] it was 600 to 1000 nM.

Another assay addresses T4, wild-type EGFR transformed Ba/F3 cells (Homo sapiens, UniProt P00533).
T4 construct: expressed in transfected cells; host or cells: Ba/F3
In words: Proliferation inhibition assay, wild-type EGFR transformed Ba/F3 cells. The conditions noted are these: MTS assay, 72 hours. It is filed as cell-based. As to the method: as §1, §2, §3
On to `C=CC(=O)Nc1cc(Nc2ncc3cc(Oc4cc(F)c(F)cc4F)c(=O)n(C)c3n2)c(OC)cc1N(C)CCN(C)C` [Compound 135], for which the EC50 is < 200 nM.
The same measure, in the same setting: under `C=CC(=O)Nc1cc(Nc2ncc3cc(Oc4c(F)cc(F)cc4F)c(=O)n(C)c3n2)c(OC)cc1N(C)CCN(C)C` [Compound 136] stands < 200 nM; under `C=CC(=O)Nc1cc(Nc2ncc3cc(Oc4ccc(F)cc4F)c(N)nc3n2)c(OC)cc1N(C)CCN(C)C` [Compound 140], < 200 nM.
Same read-out and setting: under `C=CC(=O)Nc1cc(Nc2ncc3cc(Nc4ccc(F)cc4F)c(=O)n(C)c3n2)c(OC)cc1N(C)CCN(C)C` [Compound 141] stands < 200 nM; under `C=CC(=O)Nc1cc(Nc2ncc3cc(Nc4ccc(F)cc4F)c(=O)n(C)c3n2)c(OC)cc1OCCN(C)C` [Compound 142], < 200 nM.

The target of another assay is T5, HER2 InsWLV transformed Ba/F3 cells (Homo sapiens, UniProt P04626, INS773WL/M774V).
T5 construct: expressed in transfected cells; host or cells: Ba/F3
T5 sequence (P04626 with tags, fused parts or gaps INS773WL/M774V): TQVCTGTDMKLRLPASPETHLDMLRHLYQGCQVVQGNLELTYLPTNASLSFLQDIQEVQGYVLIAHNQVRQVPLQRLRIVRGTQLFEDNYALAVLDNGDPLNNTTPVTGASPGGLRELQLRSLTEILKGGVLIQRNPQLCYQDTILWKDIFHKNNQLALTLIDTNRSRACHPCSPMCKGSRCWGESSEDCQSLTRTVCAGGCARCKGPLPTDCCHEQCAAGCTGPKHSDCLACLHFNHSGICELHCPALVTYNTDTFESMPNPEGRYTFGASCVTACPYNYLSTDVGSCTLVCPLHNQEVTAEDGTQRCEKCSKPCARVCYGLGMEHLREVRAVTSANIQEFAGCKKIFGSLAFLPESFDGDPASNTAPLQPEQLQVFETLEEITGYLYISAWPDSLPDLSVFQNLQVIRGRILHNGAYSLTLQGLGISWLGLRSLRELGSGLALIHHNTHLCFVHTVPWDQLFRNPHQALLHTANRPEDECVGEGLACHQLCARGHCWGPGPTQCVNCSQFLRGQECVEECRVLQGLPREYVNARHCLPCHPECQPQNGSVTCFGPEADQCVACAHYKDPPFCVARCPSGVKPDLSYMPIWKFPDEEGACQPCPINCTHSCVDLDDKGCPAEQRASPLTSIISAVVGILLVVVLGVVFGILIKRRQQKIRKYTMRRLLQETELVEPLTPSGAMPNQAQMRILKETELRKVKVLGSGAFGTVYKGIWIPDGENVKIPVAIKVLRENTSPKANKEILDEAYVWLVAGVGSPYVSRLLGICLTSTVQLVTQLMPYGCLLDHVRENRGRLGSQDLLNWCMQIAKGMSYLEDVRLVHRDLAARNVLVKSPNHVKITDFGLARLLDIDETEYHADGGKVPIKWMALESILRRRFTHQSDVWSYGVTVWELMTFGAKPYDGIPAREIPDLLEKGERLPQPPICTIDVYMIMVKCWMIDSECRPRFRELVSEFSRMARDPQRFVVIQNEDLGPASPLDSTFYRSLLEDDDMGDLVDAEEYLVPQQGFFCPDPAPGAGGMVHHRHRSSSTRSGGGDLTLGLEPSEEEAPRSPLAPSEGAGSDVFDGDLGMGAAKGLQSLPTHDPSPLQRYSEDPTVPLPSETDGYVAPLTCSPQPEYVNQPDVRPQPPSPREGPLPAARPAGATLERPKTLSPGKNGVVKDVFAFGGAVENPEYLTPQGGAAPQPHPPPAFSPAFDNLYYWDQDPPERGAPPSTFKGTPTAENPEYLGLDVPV
The assay can be described thus: Proliferation inhibition assay, HER2 InsWLV transformed Ba/F3 cells. It is filed as cell-based. The conditions noted are these: MTS assay, 72 hours, Table 9 key. The method, then:
as §1, §2, §3
In turn, `C=CC(=O)Nc1cc(Nc2ncc3cc(Oc4ccc(F)cc4F)c(N)nc3n2)c(OC)cc1N(C)CCN(C)C` [Compound 140] gave an EC50 of 250 to 500 nM.
As to `C=CC(=O)Nc1cc(Nc2ncc3cc(Nc4ccc(F)cc4F)c(=O)n(C)c3n2)c(OC)cc1N(C)CCN(C)C` [Compound 141], the EC50 was < 100 nM.
Consider `C=CC(=O)Nc1cc(Nc2ncc3cc(Nc4ccc(F)cc4F)c(=O)n(C)c3n2)c(OC)cc1OCCN(C)C` [Compound 142], for which the EC50 is 100 to 250 nM.

Staying with this assay, now noted: MTS assay, 72 hours, Table 10 key.
In the case of `C=CC(=O)Nc1cc(Nc2ncc3cc(Oc4cc(F)c(F)cc4F)c(=O)n(C)c3n2)c(OC)cc1N(C)CCN(C)C` [Compound 135], the EC50 was < 200 nM.
The same measure, in the same setting: under `C=CC(=O)Nc1cc(Nc2ncc3cc(Oc4c(F)cc(F)cc4F)c(=O)n(C)c3n2)c(OC)cc1N(C)CCN(C)C` [Compound 136] stands < 200 nM.

The next assay concerns the target T6, HER2 InsYVMA (A775_G776insYVMA) transformed Ba/F3 cells (Homo sapiens, UniProt P04626, INS775YVMA).
T6 construct: expressed in transfected cells; host or cells: Ba/F3
The assay can be described thus: Proliferation inhibition assay, HER2 InsYVMA transformed Ba/F3 cells. The conditions noted are these: MTS assay, 72 hours, Table 9 key. The assay is classed as cell-based. The method, then:
as §1, §2, §3
As for `C=CC(=O)Nc1cc(Nc2ncc3cc(Oc4ccc(F)cc4F)c(N)nc3n2)c(OC)cc1N(C)CCN(C)C` [Compound 140], the 50% effective concentration (EC50) was < 100 nM.
On the same count and under the same terms, in the case of `C=CC(=O)Nc1cc(Nc2ncc3cc(Nc4ccc(F)cc4F)c(=O)n(C)c3n2)c(OC)cc1N(C)CCN(C)C` [Compound 141] it was < 100 nM.
The same measure, in the same setting: under `C=CC(=O)Nc1cc(Nc2ncc3cc(Nc4ccc(F)cc4F)c(=O)n(C)c3n2)c(OC)cc1OCCN(C)C` [Compound 142] stands < 100 nM.

The same assay, now with this note: MTS assay, 72 hours, Table 10 key.
`C=CC(=O)Nc1cc(Nc2ncc3cc(Oc4cc(F)c(F)cc4F)c(=O)n(C)c3n2)c(OC)cc1N(C)CCN(C)C` [Compound 135]: the EC50 was < 200 nM.
On the same count and under the same terms, in the case of `C=CC(=O)Nc1cc(Nc2ncc3cc(Oc4c(F)cc(F)cc4F)c(=O)n(C)c3n2)c(OC)cc1N(C)CCN(C)C` [Compound 136] it was < 200 nM.

The next assay deals with T7, wild-type HER2 transformed Ba/F3 cells (Homo sapiens, UniProt P04626).
T7 construct: expressed in transfected cells; host or cells: Ba/F3
T7 sequence (P04626 23-1255): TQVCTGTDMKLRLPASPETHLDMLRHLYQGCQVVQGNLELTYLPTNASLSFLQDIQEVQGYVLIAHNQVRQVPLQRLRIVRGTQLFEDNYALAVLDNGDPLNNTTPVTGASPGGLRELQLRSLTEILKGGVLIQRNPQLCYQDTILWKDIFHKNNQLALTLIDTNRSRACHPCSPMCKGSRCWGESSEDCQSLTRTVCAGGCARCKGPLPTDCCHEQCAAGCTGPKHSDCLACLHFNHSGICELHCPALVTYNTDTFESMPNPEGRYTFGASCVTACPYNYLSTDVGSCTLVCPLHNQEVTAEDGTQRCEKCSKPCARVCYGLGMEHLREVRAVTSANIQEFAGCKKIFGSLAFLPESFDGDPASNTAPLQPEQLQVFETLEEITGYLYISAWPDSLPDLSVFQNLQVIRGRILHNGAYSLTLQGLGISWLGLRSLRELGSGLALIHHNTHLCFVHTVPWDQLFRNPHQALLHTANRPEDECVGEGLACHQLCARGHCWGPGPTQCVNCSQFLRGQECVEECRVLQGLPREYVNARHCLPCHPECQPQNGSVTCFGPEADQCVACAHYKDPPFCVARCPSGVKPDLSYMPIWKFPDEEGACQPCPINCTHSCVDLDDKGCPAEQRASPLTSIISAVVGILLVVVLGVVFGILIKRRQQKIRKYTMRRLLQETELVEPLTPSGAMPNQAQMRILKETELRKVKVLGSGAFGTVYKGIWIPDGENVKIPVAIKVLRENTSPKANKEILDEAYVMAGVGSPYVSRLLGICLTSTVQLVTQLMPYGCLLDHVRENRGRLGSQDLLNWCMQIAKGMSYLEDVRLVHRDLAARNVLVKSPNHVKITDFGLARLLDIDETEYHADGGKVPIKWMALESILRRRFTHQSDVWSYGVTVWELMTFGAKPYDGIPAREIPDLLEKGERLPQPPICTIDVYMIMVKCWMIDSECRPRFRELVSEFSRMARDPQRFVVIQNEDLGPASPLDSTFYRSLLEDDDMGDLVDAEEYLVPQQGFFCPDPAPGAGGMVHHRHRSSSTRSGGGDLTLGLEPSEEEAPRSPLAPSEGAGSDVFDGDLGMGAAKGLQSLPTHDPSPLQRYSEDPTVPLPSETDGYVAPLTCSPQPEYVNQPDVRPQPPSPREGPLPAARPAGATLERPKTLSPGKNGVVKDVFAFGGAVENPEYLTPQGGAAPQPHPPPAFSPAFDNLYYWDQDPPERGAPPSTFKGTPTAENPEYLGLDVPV
The assay can be described thus: Proliferation inhibition assay, wild-type HER2 transformed Ba/F3 cells. It is filed as cell-based. The settings on record: MTS assay, 72 hours, Table 9 key. The method, then:
as §1, §2, §3
As to `C=CC(=O)Nc1cc(Nc2ncc3cc(Oc4ccc(F)cc4F)c(N)nc3n2)c(OC)cc1N(C)CCN(C)C` [Compound 140], the EC50 was < 100 nM.
Still for that read-out and setting: in the case of `C=CC(=O)Nc1cc(Nc2ncc3cc(Nc4ccc(F)cc4F)c(=O)n(C)c3n2)c(OC)cc1N(C)CCN(C)C` [Compound 141] it was < 100 nM; in that of `C=CC(=O)Nc1cc(Nc2ncc3cc(Nc4ccc(F)cc4F)c(=O)n(C)c3n2)c(OC)cc1OCCN(C)C` [Compound 142], < 100 nM.

The assay is the same for the next values; noted with them: MTS assay, 72 hours, Table 10 key.
`C=CC(=O)Nc1cc(Nc2ncc3cc(Oc4cc(F)c(F)cc4F)c(=O)n(C)c3n2)c(OC)cc1N(C)CCN(C)C` [Compound 135]: the EC50 is < 200 nM.
On to `C=CC(=O)Nc1cc(Nc2ncc3cc(Oc4c(F)cc(F)cc4F)c(=O)n(C)c3n2)c(OC)cc1N(C)CCN(C)C` [Compound 136], for which the EC50 was < 200 nM.

The record behind these values is patent publication US11945816B2, “Inhibitors of EGFR and/or HER2 and methods of use” (Dana-Farber Cancer Institute, Inc., priority 2017, dated 2024).
